The values that follow come from patent publication US8481576B2 (Abbott GmbH & Co. KG, priority 2004, dated 2013).

Each structure is given as a SMILES string. pKi: −log10 of the molar value. Structures can show the parent of a compound that is named as a salt. Where only a bound is given, the exact number is not on record here.

For this assay, the target named is T1, h5-HT5A receptor (Homo sapiens, UniProt P47898).
T1 construct: expressed in transfected cells; host or cells: HEK293
T1 sequence (P47898 whole entry): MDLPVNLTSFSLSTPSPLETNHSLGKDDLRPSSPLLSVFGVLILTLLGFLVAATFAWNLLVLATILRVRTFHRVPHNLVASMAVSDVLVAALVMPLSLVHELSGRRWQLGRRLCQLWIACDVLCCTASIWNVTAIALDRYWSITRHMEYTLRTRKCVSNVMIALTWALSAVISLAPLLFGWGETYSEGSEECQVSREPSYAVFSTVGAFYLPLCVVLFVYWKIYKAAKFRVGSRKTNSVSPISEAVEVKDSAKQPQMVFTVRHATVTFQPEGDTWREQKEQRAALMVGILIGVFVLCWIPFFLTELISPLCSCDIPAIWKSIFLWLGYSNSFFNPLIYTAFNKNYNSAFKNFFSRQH
In words: [3H]5-CT binding assay h5-HT5A. As to conditions: membranes from HEK293 cells expressing h5-HT5A, 2.5 nM [3H]5-CT; read-out: Binding affinity 5-HT5A (Ki). An outline of the steps: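 Membranes from HEK293 cells stably expressing h5-HT5A incubated with 2.5 nM [3H]5-CT and compound in 100 mM Tris-HCl pH 7.7, 1 mM EDTA, 75 min at 30° C. Nonspecific binding with 10 μM methiothepine; filtration and scintillation counting give Ki or IC50.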
As for `COc1ccc2ccccc2c1CNC(=N)Nc1nc(-c2ccccc2)cs1` [Example 146, N-[(2-methoxy-1-naphthyl)methyl]-N′-(4-phenyl-1,3-thiazole-2-yl)guanidine], the pKi was 6.30 to 7.30.

For the compound `COc1cccc(OC)c1CNC(=N)Nc1nc(C2CCCN2)cs1` (centres unmarked) [Example 147, N-(2,6-dimethoxybenzyl)-N′-(4-pyrrolidine-2-yl-1,3-thiazole-2-yl)guanidine hydrochloride], the pKi was over 7.30.

On to `COc1cccc(OC)c1CNC(=N)Nc1nc(C2CCCN2C(C)=O)cs1` (centres unmarked) [Example 148, N-[4-(1-acetylpyrrolidine-2-yl)-1,3-thiazole-2-yl]-N′-(2,6-dimethoxybenzyl)guanidine], for which the pKi was over 7.30.

Regarding `COc1cccc(OC)c1CNC(=N)Nc1nc(C2CCCN2C)cs1` (centres unmarked) [Example 149, N-(2,6-dimethoxybenzyl)-N′-[4-(1-methylpyrrolidine-2-yl)-1,3-thiazole-2-yl]guanidine], the pKi was over 7.30.

Regarding `COc1cccc(OC)c1CNC(=N)Nc1nc(C2CCCN2S(=O)(=O)c2ccccc2)cs1` (centres unmarked) [Example 150, N-(2,6-dimethoxybenzyl)-N′-{4-[1-(phenylsulfonyl)pyrrolidine-2-yl]-1,3-thiazole-2-yl}guanidine], the pKi is over 7.30.

On to `COc1cccc(OC)c1CNC(=N)Nc1nc(C2CCCN2Cc2ccccc2)cs1` (centres unmarked) [Example 151, N-[4-(1-benzylpyrrolidine-2-yl)-1,3-thiazole-2-yl]-N′-(2,6-dimethoxybenzyl)guanidine], for which the pKi was over 7.30.

For `COc1cccc(Cl)c1CNC(=N)Nc1nc(-c2ncc(F)cc2F)cs1` [Example 152, N-(2-chloro-6-methoxybenzyl)-N′-[4-(3,5-difluoropyridine-2-yl)-1,3-thiazole-2-yl]guanidine], the pKi is over 7.30.

With `COc1cccc(OC)c1CNC(=N)Nc1nc(-c2ccc(F)cc2OCCN2CCOCC2)cs1` [Example 153, N-(2,6-dimethoxybenzyl)-N′-{4-[4-fluoro-2-(2-morpholine-4-ylethoxy)phenyl]-1,3-thiazole-2-yl}guanidine], the pKi is over 7.30.

`COc1cccc(OC)c1CNC(=N)Nc1nc(CN)cs1` [Example 154, N-[4-(aminomethyl)-1,3-thiazole-2-yl]-N′-(2,6-dimethoxybenzyl)guanidine hydrochloride]: the pKi is over 7.30.

For the compound `COc1cccc(OC)c1CNC(=N)Nc1nc(CNC(=O)c2ccccc2)cs1` [Example 155, N-[(2-{[[(2,6-dimethoxybenzyl)amino](imino)methyl]amino}-1,3-thiazole-4-yl)methyl]benzamide], the pKi was over 7.30.

As for `COc1cccc(OC)c1CNC(=N)Nc1nc(C2CCCN2C(C)C)cs1` (centres unmarked) [Example 156, N-(2,6-dimethoxybenzyl)-N′-[4-(1-isopropylpyrrolidine-2-yl)-1,3-thiazole-2-yl]guanidine], the pKi is 6.30 to 7.30.

On to `CCCCS(=O)(=O)NCc1csc(NC(=N)NCc2c(OC)cccc2OC)n1` [Example 157, N-[(2-{[[(2,6-dimethoxybenzyl)amino](imino)methyl]amino}-1,3-thiazole-4-yl)methyl]butane-1-sulfonamide], for which the pKi is over 7.30.

As to `COc1cccc(OC)c1CNC(=N)Nc1nc(CN(C)C)cs1` [Example 158, N-(2,6-Dimethoxybenzyl)-N′-{4-[(dimethylamino)methyl]-1,3-thiazole-2-yl}guanidine acetate], the negative logarithm of the Ki (pKi) is over 7.30.

Regarding `COC(=O)NCc1csc(NC(=N)NCc2c(OC)cccc2OC)n1` [Example 159, Methyl[(2-{[[(2,6-dimethoxybenzyl)amino](imino)methyl]amino}-1,3-thiazole-4-yl)methyl]carbamate], the pKi is over 7.30.

Regarding `COC(=O)c1sc(NC(=N)NCc2c(OC)cccc2OC)nc1-c1ccc(F)cc1` [Example 160, Methyl-2-{[[(2,6-dimethoxybenzyl)amino](imino)methyl]amino}-4-(4-fluorophenyl)-1,3-thiazole-5-carboxylate], the pKi was over 7.30.

Turning to `COc1cccc(OC)c1CNC(=N)Nc1nc(C2CCNCC2)cs1` [Example 162, N-(2,6-dimethoxybenzyl)-N′-(4-piperidine-4-yl-1,3-thiazole-2-yl)guanidine hydrochloride], the pKi was over 7.30.

Take `COc1cccc(OC)c1CNC(=N)Nc1nc(C2CCN(S(C)(=O)=O)CC2)cs1` [Example 163, N-(2,6-dimethoxybenzyl)-N′-{4-[1-(methylsulfonyl)piperidine-4-yl]-1,3-thiazole-2-yl}guanidine]: the negative logarithm of the Ki (pKi) was over 7.30.

On to `COc1cccc(OC)c1CNC(=N)Nc1nc(-c2ncccc2Cl)cs1` [Example 164, N-[4-(3-chloropyridine-2-yl)-1,3-thiazole-2-yl]-N′-(2,6-dimethoxybenzyl)guanidine], for which the negative logarithm of the Ki (pKi) was over 7.30.

Consider `COc1cccc(OC)c1CNC(=N)Nc1nc(-c2ccnc3c(F)cccc23)cs1` [Example 165, N-(2,6-dimethoxybenzyl)-N′-[4-(8-fluorochinoline-4-yl)-1,3-thiazole-2-yl]guanidine], for which the pKi was over 7.30.

As to `COc1ccccc1CNC(=N)Nc1nc(N2CCCCC2)cs1` [Example 166, 1-[2-({imino[(2-methoxybenzyl)amino]methyl}amino)-1,3-thiazole-4(5H)-ylidene]piperidinium chloride], the pKi is under 6.30.

On to `COc1cccc(OC)c1CNC(=N)Nc1nc(N2CCOCC2)cs1` [Example 167, 4-[2-{[[(2,6-dimethoxybenzyl)amino](imino)methyl]amino}-1,3-thiazole-4(5H)-yliden]morpholine-4-ium chloride], for which the negative-log Ki (pKi) was 6.30 to 7.30.

For `COc1ccccc1CNC(=N)Nc1nc2ccc(C)cc2s1` [Example 168, N-(2-methoxybenzyl)-N′-(6-methyl-1,3-benzothiazole-2-yl)guanidine fumarate], the pKi was 6.30 to 7.30.

As for `COc1cccc(OC)c1CNC(=N)Nc1nc2ccc(C)cc2s1` [Example 169, N-(2,6-dimethoxybenzyl)-N′-(6-methyl-1,3-benzothiazole-2-yl)guanidine fumarate], the pKi was over 7.30.

As to `CCOc1ccc2nc(NC(=N)NCc3ccccc3OC)sc2c1` [Example 170, N-(6-ethoxy-1,3-benzothiazole-2-yl)-N′-(2-methoxybenzyl)guanidine fumarate], the pKi was 6.30 to 7.30.

`COc1cccc(OC)c1CNC(=N)Nc1nc2cc(Cl)c(C)cc2s1` [Example 171, N-(5-chlor-6-methyl-1,3-benzothiazole-2-yl)-N′-(2,6-dimethoxybenzyl)guanidine difumarate]: the pKi was 6.30 to 7.30.

As for `COc1cccc(OC)c1CNC(=N)Nc1nc2cc(C)c(C)cc2s1` [Example 172, N-(2,6-dimethoxybenzyl)-N′-(5,6-dimethyl-1,3-benzothiazole-2-yl)guanidine fumarate], the pKi was over 7.30.

On to `COc1ccccc1CNC(=N)Nc1nc(C)c(C)o1` [Example 173, N-(4,5-dimethyl-1,3-oxazole-2-yl)-N′-(2-methoxybenzyl)guanidine], for which the pKi was 6.30 to 7.30.

Consider `COc1cccc(OC)c1CNC(=N)Nc1nc(C)c(C)o1` [Example 174, N-(2,6-dimethoxybenzyl)-N′-(4,5-dimethyl-1,3-oxazole-2-yl)guanidine acetate], for which the pKi was over 7.30.

`COc1ccccc1CNC(=N)Nc1nnc(-c2ccccc2)s1` [Example 175, N-(2-methoxybenzyl)-N′-(5-phenyl-1,3,4-thiadiazole-2-yl)guanidine acetate]: the pKi is under 6.30.

On to `COc1cccc(OC)c1CNC(=N)Nc1nnc(-c2ccccc2)s1` [Example 176, N-(2,6-dimethoxybenzyl)-N′-(5-phenyl-1,3,4-thiadiazole-2-yl)guanidine], for which the pKi was 6.30 to 7.30.

Regarding `COc1cccc(OC)c1CNC(=N)Nc1ncc[nH]1` [Example 177, N-(2,6-dimethoxybenzyl)-N′-1H-imidazole-2-ylguanidine acetate], the pKi is over 7.30.

For the compound `COc1ccccc1CNC(=N)Nc1nnc(C)s1` [Example 178, N-(2-methoxybenzyl)-N′-(5-methyl-1,3,4-thiadiazole-2-yl)guanidine], the pKi is 6.30 to 7.30.

In the case of `COc1ccccc1CNC(=N)Nc1n[nH]c2ccccc12` [Example 179, N-1H-indazole-3-yl-N′-(2-methoxybenzyl)guanidine acetate], the pKi was over 7.30.

For the compound `COc1cccc(OC)c1CNC(=N)Nc1n[nH]c2ccccc12` [Example 180, N-(2,6-dimethoxybenzyl)-N′-1H-indazole-3-ylguanidine acetate], the pKi was over 7.30.

Regarding `COc1cccc(OC)c1CNC(=N)Nc1nnc(C)[nH]1` [Example 181, N-(2,6-dimethoxybenzyl)-N′-(5-methyl-4H-1,2,4-triazole-3-yl)guanidine], the pKi is over 7.30.

Turning to `COc1cccc(OC)c1CNC(=N)Nc1nc2ccccc2[nH]1` [Example 182, N-1H-benzimidazole-2-yl-N′-(2,6-dimethoxybenzyl)guanidine diacetate], the pKi is over 7.30.

With `COc1ccccc1CNC(=N)Nc1ncc[nH]1` [Example 183, N-1H-imidazole-2-yl-N′-(2-methoxybenzyl)guanidine acetate], the pKi is 6.30 to 7.30.

`COc1ccccc1CNC(=N)Nc1nnc[nH]1` [Example 184, N-(2-methoxybenzyl)-N′-4H-1,2,4-triazole-3-ylguanidine acetate]: the negative logarithm of the Ki (pKi) was under 6.30.

For the compound `COc1ccccc1CNC(=N)Nc1nnc(C)[nH]1` [Example 185, N-(2-methoxybenzyl)-N′-(5-methyl-4H-1,2,4-triazole-3-yl)guanidine acetate], the negative-log Ki (pKi) was under 6.30.

As for `COc1ccccc1CNC(=N)Nc1nc(-c2ccc(F)cc2)c[nH]1` [Example 186, N-[4-(4-fluorophenyl)-1H-imidazole-2-yl]-N′-(2-methoxybenzyl)guanidine], the pKi is over 7.30.

As to `COc1cccc(OC)c1CNC(=N)Nc1nc(-c2ccccc2)c[nH]1` [Example 187, N-(2,6-dimethoxybenzyl)-N′-(4-phenyl-1H-imidazole-2-yl)guanidine acetate], the pKi was over 7.30.

A word on the pKi: it is the Ki on a negative log10 scale, so that one unit is a factor of ten.
